How the values were obtained:
Assay in all cases: drug sensitivity score (DSS) (DSS (unitless, 0-50 scale)); higher = more sensitive (stronger viability inhibition); extreme values may be limits of the assay
Settings in all cases: 72 h; culture: 2D
FM-MEL-6 = tested on: FM-MEL-6
Summary of the method: (§1)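 Drug sensitivity scores, modified area-under-curve measures, were derived from dose-response curves fitted in the in-house Breeze software. The curves came from melanoma cell lines and patient-derived melanoma cultures (1000–1500 cells per well) grown in 2D in 384-well plates holding a 527-compound oncology library. Each compound was dissolved in DMSO or water and tested at five concentrations across a 10,000-fold range. Viability was read by CellTiter-Glo luminescence after 72 h at 37 °C.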

SK-MEL-2 = tested on: SK-MEL-2
Summary of the method: as §1

FM-MEL-3 = tested on: FM-MEL-3
Summary of the method: as §1

Bowes = tested on: Bowes
Summary of the method: as §1

FM-MEL-2 = tested on: FM-MEL-2
Summary of the method: as §1

WM165 = tested on: WM165
Summary of the method: as §1

WM852 = tested on: WM852
Summary of the method: as §1

SK-MEL-28 = tested on: SK-MEL-28
Summary of the method: as §1

## CN(C)Cc1ccc(S(=O)(=O)n2ccc(/C=C/C(=O)NO)c2)cc1 [Resminostat]
FM-MEL-6
  drug sensitivity score: 7.3
SK-MEL-2
  drug sensitivity score: 7.9
FM-MEL-3
  drug sensitivity score: 6.5
Bowes
  drug sensitivity score: 2.7
FM-MEL-2
  drug sensitivity score: 6.9
WM165
  drug sensitivity score: 9.7
WM852
  drug sensitivity score: 2.7
SK-MEL-28
  drug sensitivity score: 4.8

## CN(C)C(=O)c1cc2cnc(Nc3ccc(N4CCNCC4)cn3)nc2n1C1CCCC1 [Ribociclib]
FM-MEL-6
  drug sensitivity score: 1.6
SK-MEL-2
  drug sensitivity score: 0
FM-MEL-3
  drug sensitivity score: 2.3
Bowes
  drug sensitivity score: 0
FM-MEL-2
  drug sensitivity score: 4.3
WM165
  drug sensitivity score: 2.8
WM852
  drug sensitivity score: 0.7
SK-MEL-28
  drug sensitivity score: 5.4

## CO[C@H]1C[C@@H]2CC[C@@H](C)[C@@](O)(O2)C(=O)C(=O)N2CCCC[C@H]2C(=O)O[C@H]([C@H](C)C[C@@H]2CC[C@@H](OP(C)(C)=O)[C@H](OC)C2)CC(=O)[C@H](C)/C=C(\C)[C@@H](O)[C@@H](OC)C(=O)[C@H](C)C[C@H](C)/C=C/C=C/C=C/1C [Ridaforolimus]
FM-MEL-6
  drug sensitivity score: 2.7
SK-MEL-2
  drug sensitivity score: 0
FM-MEL-3
  drug sensitivity score: 0
Bowes
  drug sensitivity score: 0
FM-MEL-2
  drug sensitivity score: 0.9
WM165
  drug sensitivity score: 7.6
WM852
  drug sensitivity score: 0
SK-MEL-28
  drug sensitivity score: 3.8

## C[C@H]1CNCCCN1S(=O)(=O)c1cccc2cncc(F)c12 [Ripasudil]
FM-MEL-6
  drug sensitivity score: 0
SK-MEL-2
  drug sensitivity score: 0
FM-MEL-3
  drug sensitivity score: 0
Bowes
  drug sensitivity score: 0
FM-MEL-2
  drug sensitivity score: 0
WM165
  drug sensitivity score: 0.1
WM852
  drug sensitivity score: 0
SK-MEL-28
  drug sensitivity score: 0

## C=CC(=O)Nc1cccc(Nc2nc(Nc3ccc(N4CCN(C(C)=O)CC4)cc3OC)ncc2C(F)(F)F)c1 [Rociletinib]
FM-MEL-6
  drug sensitivity score: 3.4
SK-MEL-2
  drug sensitivity score: 2.9
FM-MEL-3
  drug sensitivity score: 7.9
Bowes
  drug sensitivity score: 7.7
FM-MEL-2
  drug sensitivity score: 6.6
WM165
  drug sensitivity score: 7.2
WM852
  drug sensitivity score: 3
SK-MEL-28
  drug sensitivity score: 1.1

## O=C(CCCCCCNC(=O)c1cnc(N(c2ccccc2)c2ccccc2)nc1)NO [Rocilinostat]
FM-MEL-6
  drug sensitivity score: 6.6
SK-MEL-2
  drug sensitivity score: 3.4
FM-MEL-3
  drug sensitivity score: 6.4
Bowes
  drug sensitivity score: 2
FM-MEL-2
  drug sensitivity score: 2.8
WM165
  drug sensitivity score: 5.7
WM852
  drug sensitivity score: 2.3
SK-MEL-28
  drug sensitivity score: 3.7

## C/C=C1\NC(=O)[C@H]2CSSCC/C=C/[C@H](CC(=O)N[C@H](C(C)C)C(=O)N2)OC(=O)[C@H](C(C)C)NC1=O [Romidepsin]
FM-MEL-6
  drug sensitivity score: 26.5
SK-MEL-2
  drug sensitivity score: 30.4
FM-MEL-3
  drug sensitivity score: 29.7
Bowes
  drug sensitivity score: 18.6
FM-MEL-2
  drug sensitivity score: 28.1
WM165
  drug sensitivity score: 30
WM852
  drug sensitivity score: 17.9
SK-MEL-28
  drug sensitivity score: 29

## Cc1nc(C(=O)NCC(=O)O)c(O)c2ccc(Oc3ccccc3)cc12 [Roxadustat]
FM-MEL-6
  drug sensitivity score: 0
SK-MEL-2
  drug sensitivity score: 0
FM-MEL-3
  drug sensitivity score: 0
Bowes
  drug sensitivity score: 0
FM-MEL-2
  drug sensitivity score: 0
WM165
  drug sensitivity score: 0
WM852
  drug sensitivity score: 2.1
SK-MEL-28
  drug sensitivity score: 0

## CN(C)C[C@@H]1CCn2cc(c3ccccc32)C2=C(C(=O)NC2=O)c2cn(c3ccccc23)CCO1 [Ruboxistaurin]
FM-MEL-6
  drug sensitivity score: 7.6
SK-MEL-2
  drug sensitivity score: 4.7
FM-MEL-3
  drug sensitivity score: 6.5
Bowes
  drug sensitivity score: 4.5
FM-MEL-2
  drug sensitivity score: 7.2
WM165
  drug sensitivity score: 8.6
WM852
  drug sensitivity score: 6.7
SK-MEL-28
  drug sensitivity score: 9

## CNCc1ccc(-c2[nH]c3cc(F)cc4c3c2CCNC4=O)cc1 [Rucaparib]
FM-MEL-6
  drug sensitivity score: 0.7
SK-MEL-2
  drug sensitivity score: 0
FM-MEL-3
  drug sensitivity score: 0.5
Bowes
  drug sensitivity score: 0.6
FM-MEL-2
  drug sensitivity score: 0.8
WM165
  drug sensitivity score: 3.8
WM852
  drug sensitivity score: 0
SK-MEL-28
  drug sensitivity score: 0

## N#CC[C@H](C1CCCC1)n1cc(-c2ncnc3[nH]ccc23)cn1 [Ruxolitinib]
FM-MEL-6
  drug sensitivity score: 0
SK-MEL-2
  drug sensitivity score: 0
FM-MEL-3
  drug sensitivity score: 1.4
Bowes
  drug sensitivity score: 0.1
FM-MEL-2
  drug sensitivity score: 0
WM165
  drug sensitivity score: 0
WM852
  drug sensitivity score: 0.1
SK-MEL-28
  drug sensitivity score: 0

## CC(C)N(CCCNC(=O)Nc1ccc(C(C)(C)C)cc1)C[C@H]1O[C@@H](n2cc(Br)c3c(N)ncnc32)[C@H](O)[C@@H]1O [SGC0946]
FM-MEL-6
  drug sensitivity score: 0.8
SK-MEL-2
  drug sensitivity score: 0
FM-MEL-3
  drug sensitivity score: 6.1
Bowes
  drug sensitivity score: 0
FM-MEL-2
  drug sensitivity score: 1.4
WM165
  drug sensitivity score: 0
WM852
  drug sensitivity score: 2
SK-MEL-28
  drug sensitivity score: 0

## COc1ccc(CCc2nc3cc(-c4c(C)noc4C)ccc3n2C[C@H](C)N2CCOCC2)cc1Cl [SGC-CBP30]
FM-MEL-6
  drug sensitivity score: 3
SK-MEL-2
  drug sensitivity score: 0.1
FM-MEL-3
  drug sensitivity score: 7.4
Bowes
  drug sensitivity score: 3.6
FM-MEL-2
  drug sensitivity score: 4.9
WM165
  drug sensitivity score: 5.2
WM852
  drug sensitivity score: 0
SK-MEL-28
  drug sensitivity score: 0.9

## CN1CCC(CNc2ccc3ncc(-c4cccc(OC(F)(F)F)c4)n3n2)CC1 [SGI-1776]
FM-MEL-6
  drug sensitivity score: 5.3
SK-MEL-2
  drug sensitivity score: 4.8
FM-MEL-3
  drug sensitivity score: 5.1
Bowes
  drug sensitivity score: 5.5
FM-MEL-2
  drug sensitivity score: 5.9
WM165
  drug sensitivity score: 6.1
WM852
  drug sensitivity score: 6.1
SK-MEL-28
  drug sensitivity score: 6.1

## CN(CC(=O)N(Cc1ccc(C2CCCCC2)cc1)c1ccc(C(=O)O)cc1)S(=O)(=O)c1c(F)c(F)c(F)c(F)c1F [SH-4-54]
FM-MEL-6
  drug sensitivity score: 5.8
SK-MEL-2
  drug sensitivity score: 5.1
FM-MEL-3
  drug sensitivity score: 8.2
Bowes
  drug sensitivity score: 7.1
FM-MEL-2
  drug sensitivity score: 5.2
WM165
  drug sensitivity score: 16.1
WM852
  drug sensitivity score: 6.4
SK-MEL-28
  drug sensitivity score: 5.4

## CCc1c2c(nc3ccc(O)cc13)-c1cc3c(c(=O)n1C2)COC(=O)[C@]3(O)CC [SN-38]
FM-MEL-6
  drug sensitivity score: 19.7
SK-MEL-2
  drug sensitivity score: 17.3
FM-MEL-3
  drug sensitivity score: 24.6
Bowes
  drug sensitivity score: 19.7
FM-MEL-2
  drug sensitivity score: 11.8
WM165
  drug sensitivity score: 42.7
WM852
  drug sensitivity score: 8
SK-MEL-28
  drug sensitivity score: 17

## CC(C)(C)c1cnc(CSc2cnc(NC(=O)C3CCNCC3)s2)o1 [SNS-032]
FM-MEL-6
  drug sensitivity score: 26.1
SK-MEL-2
  drug sensitivity score: 19.2
FM-MEL-3
  drug sensitivity score: 19.2
Bowes
  drug sensitivity score: 31.8
FM-MEL-2
  drug sensitivity score: 12.7
WM165
  drug sensitivity score: 25
WM852
  drug sensitivity score: 18.2
SK-MEL-28
  drug sensitivity score: 18.9

## Cc1cc2c(C(=O)NC[C@H](C)c3ccccc3)c(O)c(O)cc2c(O)c1-c1c(C)cc2c(C(=O)NC[C@H](C)c3ccccc3)c(O)c(O)cc2c1O [Sabutoclax]
FM-MEL-6
  drug sensitivity score: 5.6
SK-MEL-2
  drug sensitivity score: 9.2
FM-MEL-3
  drug sensitivity score: 0.4
Bowes
  drug sensitivity score: 27.6
FM-MEL-2
  drug sensitivity score: 13
WM165
  drug sensitivity score: 24.6
WM852
  drug sensitivity score: 18
SK-MEL-28
  drug sensitivity score: 11.1

## CC[C@@H](C(=O)[C@@H](C)[C@@H](O)[C@H](C)[C@@H]1O[C@@H]([C@@H](CC)C(=O)O)CC[C@@H]1C)[C@H]1O[C@]2(C=C[C@@H](O)[C@]3(CC[C@@](C)([C@H]4CC[C@](O)(CC)[C@H](C)O4)O3)O2)[C@H](C)C[C@@H]1C [Salinomycin]
FM-MEL-6
  drug sensitivity score: 13.2
SK-MEL-2
  drug sensitivity score: 2.1
FM-MEL-3
  drug sensitivity score: 6.9
Bowes
  drug sensitivity score: 19.1
FM-MEL-2
  drug sensitivity score: 6.4
WM165
  drug sensitivity score: 18.3
WM852
  drug sensitivity score: 9.9
SK-MEL-28
  drug sensitivity score: 9.5

## CC(C)n1nc(-c2ccc3oc(N)nc3c2)c2c(N)ncnc21 [Sapanisertib]
FM-MEL-6
  drug sensitivity score: 11.1
SK-MEL-2
  drug sensitivity score: 7.9
FM-MEL-3
  drug sensitivity score: 9
Bowes
  drug sensitivity score: 13.2
FM-MEL-2
  drug sensitivity score: 10.1
WM165
  drug sensitivity score: 11.7
WM852
  drug sensitivity score: 8.6
SK-MEL-28
  drug sensitivity score: 10.2
